Assay: Storage stability of retinol formulations at 40° C. (retinol content after storage)
Type: physicochemical
Conditions: storage at 40° C.
Experimental: To determine the stability of these formulations, they were stored (at 40° C.) for 2 weeks and 12 weeks. And the loss of retinol was measure (the initial value was 100%).

Q: With `CC1=C(/C=C/C(C)=C/C=C/C(C)=C/CO)C(C)(C)CCC1` [retinol, Retinol] as the compound, how does the “cis/trans ratio of the retinol during storage (in words)” value read?
A: stable

— patent US20250161232A1, “RETINOL FORMULATION (VI)” (DSM IP Assets B.V., priority 2022, published 2025)
